Reference: patent US20200315540A1, “TREATMENT OF A DISEASE OF THE GASTROINTESTINAL TRACT WITH AN IL-1 INHIBITOR” (Progenity, Inc., priority 2016, published 2020)

Test: Tissue, plasma and GI content pharmacokinetics of tacrolimus, oral vs intra-cecal ingestible device delivery in swine
Assay type: in vivo
Conditions: intra-cecally vs orally administered, 12 hours post-dose, FIG. 76
Procedure: No further randomization procedure was employed.
Animals in Group 1 received an ingestible device containing 0.8 mL of vehicle solution (80% alcohol, 20% HCO-60). Animals in Group 2 received orally […] liquid formulation of tacrolimus at 4 mg/0.8 mL per animal (Prograf: 5 mg/mL). Animals in Group 3 received intra-cecally an ingestible device containing tacrolimus at 1 mg in 0.8 mL per ingestible device. Animals in Group 4 received intra-cecally an ingestible device containing tacrolimus at 2 mg in 0.8 mL per ingestible device. Animals in Group 5 received intra-cecally an ingestible device containing tacrolimus at 4 mg in 0.8 mL per ingestible device. […]
Approximately 200˜400 mg of rectal content were collected, if available, with a fecal swab (Copan Diagnostics Nylon Flocked Dry Swabs, 502CS01). The fecal swab was pre-weighed and weighed after collection in the collection tube (Sterile Tube and Cap No Media, PFPM913S), and the sample weight was recorded. […]
For tissue necropsy, small intestine fluid and cecal fluid were collected separately from all the animals into two separate square plastic bottles, and stored at −20° C. The length and diameter of the cecum and the colon was measured from one animal in each group and recorded for reference. […] All samples were weighed, and the tissue sample weights were recorded. […]

C=CC[C@@H]1/C=C(\C)C[C@H](C)C[C@H](OC)[C@H]2O[C@@](O)(C(=O)C(=O)N3CCCC[C@H]3C(=O)O[C@H](/C(C)=C/[C@@H]3CC[C@@H](O)[C@H](OC)C3)[C@H](C)[C@@H](O)CC1=O)[C@H](C)C[C@@H]2OC [tacrolimus]
mean concentration in the cecum tissue and the proximate colon tissue: higher
